Assay results taken from ChEMBL document CHEMBL1151449, “In vitro activity of DC-159a, a new broad-spectrum fluoroquinolone, compared with that of other agents against drug-susceptible and -resistant pneumococci” (2008).
In brackets after ≈: the same amount, converted by molar mass.

Assays:
Format in all cases: functional
Streptococcus pneumoniae [1] = assay: Antibacterial activity against quinolone-susceptible Streptococcus pneumoniae ATCC 49619 by agar dilution method
Streptococcus pneumoniae [2] = assay: Antibacterial activity against macrolide-, quinolone-susceptible and penicillin-intermediate Streptococcus pneumoniae HMC 99 by broth microdilution method
Streptococcus pneumoniae [3] = assay: Antibacterial activity against penicillin-intermediate Streptococcus pneumoniae […] by agar dilution method
Streptococcus pneumoniae [4] = assay: Antibacterial activity against penicillin-resistant Streptococcus pneumoniae […] by agar dilution method
Streptococcus pneumoniae [5] = assay: Antibacterial activity against macrolide-, quinolone-susceptible and penicillin-intermediate Streptococcus pneumoniae HMC 100 harboring S81Y and S79Y mutation in quinolone-resistant determining regions of GyrA and ParC genes respectively after 42 passages with levofloxacin measured after 10 daily antibiotic-free subculturing by multi-step resistance selection technique
Streptococcus pneumoniae [6] = assay: Antibacterial activity against quinolone-susceptible and penicillin-intermediate Streptococcus pneumoniae HMC 5048 expressing mefA after 50 passages by broth microdilution method
Streptococcus pneumoniae [7] = assay: Antibacterial activity against azithromycin-susceptible Streptococcus pneumoniae ATCC 49619 by agar dilution method
Streptococcus pneumoniae [8] = assay: Antibacterial activity against penicillin-, macrolide- and quinolone-susceptible Streptococcus pneumoniae HMC 63 harboring S81F mutation in quinolone-resistant determining regions of GyrA gene, D83Y mutation in QRDR of ParC gene and I460V mutation in QRDR of ParE gene after 34 passages with gemifloxacin measured after 10 daily antibiotic-free subculturing by multi-step resistance selection technique
Streptococcus pneumoniae [9] = assay: Antibacterial activity against penicillin-, quinolone-resistant and macrolide-susceptible Streptococcus pneumoniae HMC 1058 harboring S79F, K137N mutation in quinolone-resistant determining regions of ParC gene and 460V mutation in QRDR of ParE gene by broth microdilution method
Streptococcus pneumoniae [10] = assay: Antibacterial activity against penicillin-, macrolide- and quinolone-susceptible Streptococcus pneumoniae HMC 63 after 50 passages by broth microdilution method
Streptococcus pneumoniae [11] = assay: Antibacterial activity against penicillin-resistant and quinolone-susceptible Streptococcus pneumoniae HMC 228 expressing ermB and harboring S81F mutation in quinolone-resistant determining regions of GyrA gene, D83N mutation in QRDR of ParC gene and I460V mutation in QRDR of ParE gene after 28 passages with DC-159a measured after 10 daily antibiotic-free subculturing by multi-step resistance selection technique
Streptococcus pneumoniae [12] = assay: Antibacterial activity against penicillin-susceptible, quinolone-resistant Streptococcus pneumoniae 1072 expressing ermB and harboring S81F mutation in quinolone-resistant determining regions of GyrA gene, S79Y mutation in QRDR of ParC gene and I460V mutation in QRDR of ParE gene by broth microdilution method
Streptococcus pneumoniae [13] = assay: Antibacterial activity against penicillin-resistant and quinolone-susceptible Streptococcus pneumoniae HMC 3583 expressing mefA and harboring I460V mutation in QRDR of ParE gene after 41 passages with gemifloxacin measured after 10 daily antibiotic-free subculturing by multi-step resistance selection technique
Streptococcus pneumoniae [14] = assay: Antibacterial activity against macrolide-, quinolone-susceptible and penicillin-intermediate Streptococcus pneumoniae HMC 100 harboring S81Y mutation in quinolone-resistant determining regions of GyrA gene after 22 passages with moxifloxacin measured after 10 daily antibiotic-free subculturing by multi-step resistance selection technique
Streptococcus pneumoniae [15] = assay: Antibacterial activity against penicillin-resistant and quinolone-susceptible Streptococcus pneumoniae HMC 228 expressing ermB and harboring S81F mutation in quinolone-resistant determining regions of GyrA gene, S79Y mutation in QRDR of ParC gene and I460V mutation in QRDR of ParE gene after 36 passages with moxifloxacin measured after 10 daily antibiotic-free subculturing by multi-step resistance selection technique
Streptococcus pneumoniae [16] = assay: Antibacterial activity against penicillin- and quinolone-susceptible Streptococcus pneumoniae HMC 5055 expressing mefA by broth microdilution method
Streptococcus pneumoniae [17] = assay: Antibacterial activity against Streptococcus pneumoniae HMC 1066 harboring S81F mutation in quinolone-resistant determining regions of GyrA gene, S79F mutation in QRDR of ParC gene and I460V mutation in QRDR of ParE gene by agar dilution method
Streptococcus pneumoniae [18] = assay: Antibacterial activity against Streptococcus pneumoniae HMC 2536 harboring S81Y mutation in quinolone-resistant determining regions of GyrA gene, S79F, K137N mutation in QRDR of ParC gene and I460V mutation in QRDR of ParE gene by agar dilution method
Streptococcus pneumoniae [19] = assay: Antibacterial activity against Streptococcus pneumoniae HMC 2538 harboring S81Y mutation in quinolone-resistant determining regions of GyrA gene, S79F, K137N mutation in QRDR of ParC gene and I460V mutation in QRDR of ParE gene showing efflux to ciprofloxacin, levofloxacin, gatifloxacin by agar dilution method
Streptococcus pneumoniae [20] = assay: Antibacterial activity against Streptococcus pneumoniae HMC 1077 harboring S81Y and S79F mutation in quinolone-resistant determining regions of GyrA and ParC genes respectively by agar dilution method
Streptococcus pneumoniae [21] = assay: Antibacterial activity against Streptococcus pneumoniae HMC 1156 harboring S81F and S79F mutation in quinolone-resistant determining regions of GyrA and ParC genes respectively showing efflux to ciprofloxacin, gemifloxacin by agar dilution method
Streptococcus pneumoniae [22] = assay: Antibacterial activity against Streptococcus pneumoniae HMC 2527 harboring S81Y mutation in quinolone-resistant determining regions of GyrA gene, S79F, K137N mutation in QRDR of ParC gene and I460V mutation in QRDR of ParE gene by agar dilution method
Streptococcus pneumoniae [23] = assay: Antibacterial activity against Streptococcus pneumoniae HMC 1076 harboring S81F mutation in quinolone-resistant determining regions of GyrA gene, D83N mutation in QRDR of ParC gene and I460V mutation in QRDR of ParE gene by agar dilution method
Streptococcus pneumoniae [24] = assay: Antibacterial activity against Streptococcus pneumoniae HMC 1149 harboring S81F and S79Y mutation in quinolone-resistant determining regions of GyrA and ParC genes respectively showing efflux to ciprofloxacin, gemifloxacin by agar dilution method
Streptococcus pneumoniae [25] = assay: Antibacterial activity against Streptococcus pneumoniae HMC 1073 harboring S81F mutation in quinolone-resistant determining regions of GyrA gene, and I460V mutation in QRDR of ParE gene by agar dilution method
Streptococcus pneumoniae [26] = assay: Antibacterial activity against Streptococcus pneumoniae HMC 1058 harboring S79F, K137N mutation in quinolone-resistant determining regions of ParC gene and 460V mutation in QRDR of ParE gene by agar dilution method
Streptococcus pneumoniae [27] = assay: Antibacterial activity against Streptococcus pneumoniae HMC 1151 harboring D83N, K137N mutation in quinolone-resistant determining regions of ParC gene and I460V mutation in QRDR of ParE gene showing efflux to ciprofloxacin, gemifloxacin by agar dilution method
Streptococcus pneumoniae [28] = assay: Antibacterial activity against Streptococcus pneumoniae HMC 1060 harboring S81F mutation in quinolone-resistant determining regions of GyrA gene, S79F, K137N mutation in QRDR of ParC gene and I460V mutation in QRDR of ParE gene by agar dilution method

For `CC[C@H]1OC(=O)[C@H](C)[C@@H](O[C@H]2C[C@@](C)(OC)[C@@H](O)[C@H](C)O2)[C@H](C)[C@@H](O[C@@H]2O[C@H](C)C[C@H](N(C)C)[C@H]2O)[C@](C)(O)C[C@@H](C)CN(C)[C@H](C)[C@@H](O)[C@]1(C)O` [AZITHROMYCIN], the MIC50 (Streptococcus pneumoniae [1]) was 1 µg/mL (≈ 1.34 µM), the MIC90 (Streptococcus pneumoniae [1]) was > 64 µg/mL and the MIC (Streptococcus pneumoniae [2]) was 0.016 µg/mL (≈ 0.0214 µM). The MIC50 (Streptococcus pneumoniae [3]) was 0.12 µg/mL (≈ 0.16 µM), the MIC90 (Streptococcus pneumoniae [3]) was > 64 µg/mL and the MIC50 (Streptococcus pneumoniae [4]) was 2 µg/mL (≈ 2.67 µM). The MIC (Streptococcus pneumoniae [5]) was 0.03 µg/mL (≈ 0.0401 µM), the MIC (Streptococcus pneumoniae [6]) was 8 µg/mL (≈ 10.7 µM) and the MIC50 (Streptococcus pneumoniae [7]) was 0.12 µg/mL (≈ 0.16 µM). It also gave an MIC90 (Streptococcus pneumoniae [7]) of 0.12 µg/mL (≈ 0.16 µM), an MIC (Streptococcus pneumoniae [8]) of 0.03 µg/mL (≈ 0.0401 µM) and an MIC (Streptococcus pneumoniae [9]) of 0.06 µg/mL (≈ 0.0801 µM). The MIC (Streptococcus pneumoniae [10]) was 0.06 µg/mL (≈ 0.0801 µM), the MIC (Streptococcus pneumoniae [11]) was > 64 µg/mL and the MIC (Streptococcus pneumoniae [12]) was > 64 µg/mL. For the same compound, the MIC (Streptococcus pneumoniae [13]) was 0.25 µg/mL (≈ 0.334 µM), the MIC (Streptococcus pneumoniae [14]) was 0.03 µg/mL (≈ 0.0401 µM) and the MIC (Streptococcus pneumoniae [15]) was > 64 µg/mL. It also gave an MIC (Streptococcus pneumoniae [16]) of 2 µg/mL (≈ 2.67 µM).
`COc1c(N2CCNC(C)C2)c(F)cc2c(=O)c(C(=O)O)cn(C3CC3)c12` (stereo unspecified) [GATIFLOXACIN] was tested, and the MIC (Streptococcus pneumoniae [17]) was 4 µg/mL (≈ 10.7 µM), the MIC (Streptococcus pneumoniae [18]) was 16 µg/mL (≈ 42.6 µM) and the MIC50 (Streptococcus pneumoniae [1]) was 0.5 µg/mL (≈ 1.33 µM). For the same compound, the MIC90 (Streptococcus pneumoniae [1]) was 0.5 µg/mL (≈ 1.33 µM), the MIC (Streptococcus pneumoniae [19]) was 8 µg/mL (≈ 21.3 µM) and the MIC (Streptococcus pneumoniae [20]) was 8 µg/mL (≈ 21.3 µM). It also gave an MIC (Streptococcus pneumoniae [21]) of 8 µg/mL (≈ 21.3 µM), an MIC (Streptococcus pneumoniae [22]) of 16 µg/mL (≈ 42.6 µM) and an MIC (Streptococcus pneumoniae [2]) of 0.12 µg/mL (≈ 0.32 µM). For the same compound, the MIC50 (Streptococcus pneumoniae [3]) was 0.5 µg/mL (≈ 1.33 µM), the MIC90 (Streptococcus pneumoniae [3]) was 0.5 µg/mL (≈ 1.33 µM) and the MIC50 (Streptococcus pneumoniae [4]) was 0.5 µg/mL (≈ 1.33 µM). The MIC90 (Streptococcus pneumoniae [4]) was 4 µg/mL (≈ 10.7 µM), the MIC (Streptococcus pneumoniae [5]) was 8 µg/mL (≈ 21.3 µM) and the MIC (Streptococcus pneumoniae [6]) was 0.5 µg/mL (≈ 1.33 µM). It also gave an MIC (Streptococcus pneumoniae [23]) of 4 µg/mL (≈ 10.7 µM), an MIC50 (Streptococcus pneumoniae [7]) of 0.5 µg/mL (≈ 1.33 µM) and an MIC90 (Streptococcus pneumoniae [7]) of 4 µg/mL (≈ 10.7 µM). For the same compound, the MIC (Streptococcus pneumoniae [8]) was 8 µg/mL (≈ 21.3 µM), the MIC (Streptococcus pneumoniae [24]) was 1 µg/mL (≈ 2.66 µM) and the MIC (Streptococcus pneumoniae [25]) was 4 µg/mL (≈ 10.7 µM). The MIC (Streptococcus pneumoniae [9]) was 4 µg/mL (≈ 10.7 µM), the MIC (Streptococcus pneumoniae [10]) was 1 µg/mL (≈ 2.66 µM) and the MIC (Streptococcus pneumoniae [11]) was 4 µg/mL (≈ 10.7 µM). It also gave an MIC (Streptococcus pneumoniae [26]) of 2 µg/mL (≈ 5.33 µM), an MIC (Streptococcus pneumoniae [12]) of 8 µg/mL (≈ 21.3 µM) and an MIC (Streptococcus pneumoniae [13]) of 2 µg/mL (≈ 5.33 µM). The MIC (Streptococcus pneumoniae [14]) was 4 µg/mL (≈ 10.7 µM), the MIC (Streptococcus pneumoniae [27]) was 2 µg/mL (≈ 5.33 µM) and the MIC (Streptococcus pneumoniae [28]) was 4 µg/mL (≈ 10.7 µM). It also gave an MIC (Streptococcus pneumoniae [15]) of 16 µg/mL (≈ 42.6 µM) and an MIC (Streptococcus pneumoniae [16]) of 0.25 µg/mL (≈ 0.666 µM).
